Measured values: patent publication US7691874B2, “Neuroprotective properties of dextrorotatory morphinans” (priority 2004, dated 2010)
Marks after values point to notes of the source that are not given here.

Legend:
C57 BL/6 mice = experiment: Locomotor activity and locomotor pattern following repeated administration of morphinans or PCP; type: in vivo
LPS-treated mice [1] = experiment: Striatal dopamine and metabolites in LPS-treated mice; type: in vivo; conditions: for Concentration DA in the striatum: 3 weeks after LPS
Source text: Control animals received striatal injection with PBS.
Mice were sacrificed at 3 weeks after LPS treatment.

MA-treated mice [2] = experiment: Hypokinesia induced by MA; type: in vivo; conditions: 12 and 24 mg/kg; 3 days after final MA
MA-treated mice [3] = experiment: Striatal dopamine and metabolites in MA-treated mice; type: in vivo; conditions: for Concentration DA in the striatum: 3 days after final MA
Source text: Mice were sacrificed at 3 days after final MA injection.

CB1 receptor = CB1 receptor (Rattus norvegicus, UniProt P20272); type: biochemical
Sequence of CB1 receptor (P20272 whole entry): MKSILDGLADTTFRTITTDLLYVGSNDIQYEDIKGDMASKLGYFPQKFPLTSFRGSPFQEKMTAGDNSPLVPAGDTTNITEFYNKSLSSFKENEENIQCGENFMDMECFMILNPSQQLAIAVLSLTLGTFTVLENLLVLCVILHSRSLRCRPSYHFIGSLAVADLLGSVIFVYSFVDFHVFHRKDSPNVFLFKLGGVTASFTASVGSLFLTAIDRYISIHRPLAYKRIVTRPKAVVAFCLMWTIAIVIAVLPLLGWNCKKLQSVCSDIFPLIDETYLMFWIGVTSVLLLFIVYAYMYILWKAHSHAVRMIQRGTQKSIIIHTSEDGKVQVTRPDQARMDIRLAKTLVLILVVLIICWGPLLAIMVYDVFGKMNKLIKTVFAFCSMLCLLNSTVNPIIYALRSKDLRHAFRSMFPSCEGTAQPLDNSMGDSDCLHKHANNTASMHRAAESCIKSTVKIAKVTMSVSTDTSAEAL

LPS-treated mice [4] = experiment: LPS-induced mortality with CB1 agonist/antagonist and HM; type: in vivo; conditions: given alone: HM 20, ACEA 2, AM-251 0.3 mg/kg; 2 weeks after bilateral intrastriatal LPS
Procedure: Mortality was observed by 2 weeks after bilateral LPS intrastriatal injection (one side: 2 μg×2).

MPTP-treated mice [5] = experiment: MPTP model, HM versus L-dopa/carbidopa: locomotor activity; type: in vivo; conditions: HM 24 mg/kg i.p., L-dopa 200 mg/kg p.o., carbidopa 20 mg/kg p.o., 2 weeks before MPTP
Procedure: FIGS. 20A-20B show effects of carbidopa, L-dopa, carbidopa+L-dopa and HM on the changes in locomotor activity (A) and locomotor pattern (B) induced by MPTP in mice.
A prescription drug for treating Parkinsonian patients is L-dopa or carbidopa plus L-dopa. Thus, the neuroprotective effects of HM was compared with L-dopa, carbidopa, or carbidopa plus L-dopa. […] Locomotor activity was examined for 60 min after final treatment of MPTP. Mice were sacrificed at 24 h after final MPTP administration. HM (24 mg/kg, i.p.), L-dopa (200 mg/kg, p.o.) with or without carbidopa (20 mg/kg, p.o.) was administered for 2 weeks before first MPTP challenge.

LPS-treated mice [6] = experiment: LPS model, HM versus L-dopa/carbidopa: nigral TH-IR; conditions: mouse, in vivo
Source text: FIG. 27 show effects of carbidopa, L-dopa, carbidopa+L-dopa and HM on the nigral tyrosine hydroxylase-like immunoreactivity (TH-IR) of the mice treated with LPS.

MA-treated mice [7] = experiment: MA model, HM versus L-dopa/carbidopa: hyperthermia; type: in vivo; conditions: MA 7.5 mg/kg i.p. x 4
Procedure: FIGS. 31A-31B show effect of drugs on the MA-induced hyperthermia. Mice received MA injections as 2 hrs' time interval under the ambient temperature of 22.0±0.5° C.
Experimental paradigm for MA with or without compounds is in FIG. 30. Treatment with MA (7.5 mg/kg, i.p.×four times as two hour time interval) produces hyperthermia (P<0.01).

cocaine-treated mice = experiment: Cocaine-induced hyperlocomotion; type: in vivo
Method in brief: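 Morphinans (15 and 30 mg/kg, i.p.) or dimemorfan (20 mg/kg, i.p.) given 30 minutes before cocaine (5 and 20 mg/kg, i.p.); treatments continued for 7 days. Locomotion scored as central activity (non-specific movement in box center) and marginal activity (circling).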

MA-treated mice [8] = experiment: MA-induced conditioned place preference with CB1 modulation
Procedure: The control mice received an i.p. injection of saline just before entering the white or black compartment. Cocaine or MA dissolved in saline was administered immediately before the mice were placed in the white compartment. To test the effect of cocaine alone or MA alone or in combination with exemplified morphinans (DM, HM, AM, CM or DF), each morphinan was administered 2 hr before cocaine or saline injection.
On day 1, the mice were pre-exposed to the test apparatus for 5 min. The guillotine doors were raised and the mice were allowed to move freely between the two compartments. On day 2, the time each mouse spent in each compartment was recorded for 15 min. On days 3, 5, 7, 9, 11, and 13, the mice were injected with cocaine before being confined to the white compartment, the non-preferred side, for 20 min. On days 4, 6, 8, 10, and 12, the mice were injected with saline before being confined to the black compartment, the preferred side, for 20 min. On day 14, the guillotine doors were raised. The mice were initially placed in the tunnel and the time spent by the mice in the two compartments was recorded for 15 min. The scores were calculated from the differences in the time spent in the white compartment in the testing and pre-testing phases.

σ1 receptors = σ1 receptors (Homo sapiens, UniProt Q99720); conditions: cited from earlier work
Sequence of σ1 receptors (Q99720 whole entry): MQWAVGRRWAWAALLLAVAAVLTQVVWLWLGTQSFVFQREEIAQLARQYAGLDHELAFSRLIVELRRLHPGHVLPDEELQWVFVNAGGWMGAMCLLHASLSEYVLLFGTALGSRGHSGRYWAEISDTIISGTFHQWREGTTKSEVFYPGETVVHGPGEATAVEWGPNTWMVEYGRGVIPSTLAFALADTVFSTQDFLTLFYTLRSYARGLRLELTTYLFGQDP

[9] = tested on: kainate or maximal electric shock; conditions: kainate (24) or maximal electric shock (27); cited from earlier work
LPS-treated mice [10] = experiment: Hypokinesia induced by intrastriatal LPS; conditions: 12 or 24 mg/kg, twice before bilateral intrastriatal LPS
Procedure: Male mice were anesthetized with chloral hydrate (200 mg/kg, i.p.) and positioned in a small-animal stereotaxic apparatus. […] LPS (2 μg in a volume of 2 μl of PBS) was injected into both sides of the striatum over a period of 2 min, and the injection needle was kept in place for 2 min after the injection. Control animals received striatal injection with PBS.
Ten min after the last treatment with each drug, locomotor activity was measured for 30 min. After measuring the locomotor activity (i.e. 40 min after the last drug injection), the ‘absolute turn angular’ was analyzed in a 3-min monitoring period using an automated video-tracking system (Noldus Information Technology, Wagenin, The Netherlands) to examine locomotor patterns. […] Eight test boxes (40×40×30 cm high) were operated simultaneously by an IBM computer. Animals were studied individually during locomotion in each test box, where they were adapted for 10 min before starting the experiment. […] The distance traveled in cm by the animals in horizontal locomotor activity was analyzed (13, 25, 27). Data were collected and analyzed between 0900 and 1700 hr.

MPTP-treated mice [11] = experiment: Striatal dopamine and metabolites (HPLC-EC) in MPTP-treated mice; conditions: for Concentration DA in the striatum: mean ± S.E.M., 8 animals
Procedure: Each morphinan was administered 30 min prior to every injection of MPTP for last three days (from day 4th to day 7th). Animals were sacrificed 24 h after the last MPTP treatment.
Brains were rapidly removed and cut into 1 mm coronal sections on ice. The striatum was punched using a fine pasteur pipette (3, 21, 22), and stored at −70° C. DA and its metabolites, 3,4-dihydroxyphenylacetic acid (DOPAC) and homovanilic acid (HVA) were measured by HPLC-eletrochemical detection (3, 21, 22). Briefly, the striatum was homogenized in 0.2 M perchloric acid containing 3,4-dihydroxybenzylamine as an internal standard (10 mg wet weight of tissue per ml). The homogenate was centrifuged and a 20-μl aliquot of the supernatant was injected into the HPLC equipped with an ODS-C18 column. The mobile phase was comprised of 26 ml of acetonitrile, 21 ml of tetrahydrofuran and 960 ml of 0.15 M monochloroacetic acid (pH 3.0) containing 50 mg/l of EDTA and 200 mg/l of sodium octyl sulfate. The amount of DA, DOPAC and HVA were determined by comparison of peak height ratio of tissue sample with standards, and were expressed in nanograms per 100 mg of wet weight of tissue.
Each morphinan was administered 30 min before every injection of MPTP for last three days. Animals were sacrificed at 24 h after the last MPTP injection.

cannabinoid CB1 site = cannabinoid CB1 site (Rattus norvegicus, UniProt P20272)
Sequence of cannabinoid CB1 site (P20272 whole entry): as the sequence (P20272 whole entry) above

Oc1ccc2c(c1)[C@@]13CCCC[C@H]1[C@@H](C2)NCC3 [HM, 3-hydroxymorphinan]
locomotor pattern (tracings) (C57 BL/6 mice; 40 mg/kg i.p. (PCP 5 mg/kg), FIG. 3): did not produce significant marginal activity
marginal activity (circling behaviour; absolute turn angular) (C57 BL/6 mice; 20 or 40 mg/kg i.p./day x 7 (PCP 2.5 or 5 mg/kg), 3-min period, vs saline): did not significantly affect marginal activity
locomotor activity (total distance moved) (C57 BL/6 mice; 20 or 40 mg/kg i.p./day x 7 days, 30 min after final treatment, vs saline): comparable to that with saline
effect on LPS-induced reductions in striatal DA, DOPAC and HVA (LPS-treated mice [1]; 24 mg/kg pretreatment): significantly protected
Concentration DOPAC in the striatum (LPS-treated mice [1]; morphinan 12 (mg/kg) + LPS): 83 ± 10 ng/100 mg wet tissue
Concentration HVA in the striatum (LPS-treated mice [1]; morphinan 12 (mg/kg) + LPS): 86 ± 8 ng/100 mg wet tissue
Concentration DA in the striatum (LPS-treated mice [1]; morphinan 12 (mg/kg) + LPS, mean ± S.E.M., 8 animals): 682 ± 70 ng/100 mg wet tissue
Concentration DOPAC in the striatum (LPS-treated mice [1]; morphinan 24 (mg/kg) + LPS): 112 ± 11^d ng/100 mg wet tissue
Concentration HVA in the striatum (LPS-treated mice [1]; morphinan 24 (mg/kg) + LPS): 102 ± 10^b ng/100 mg wet tissue
Concentration DA in the striatum (LPS-treated mice [1]; morphinan 24 (mg/kg) + LPS): 916 ± 98^d ng/100 mg wet tissue
effect on MA-induced reduction in locomotor activity (MA-treated mice [2]): appeared to be the most effective in preventing reduction in motor activity
effect on MA-induced reductions in striatal DA, DOPAC and HVA (MA-treated mice [3]; 24 mg/kg pretreatment): significantly protected
Concentration DOPAC in the striatum (MA-treated mice [3]; morphinan 12 (mg/kg) + MA): 88 ± 10 ng/100 mg wet tissue
Concentration HVA in the striatum (MA-treated mice [3]; morphinan 12 (mg/kg) + MA): 82 ± 8 ng/100 mg wet tissue
Concentration DA in the striatum (MA-treated mice [3]; morphinan 12 (mg/kg) + MA, mean ± S.E.M., 8 animals): 685 ± 64 ng/100 mg wet tissue
Concentration DOPAC in the striatum (MA-treated mice [3]; morphinan 24 (mg/kg) + MA): 103 ± 9^d^ ng/100 mg wet tissue
Concentration HVA in the striatum (MA-treated mice [3]; morphinan 24 (mg/kg) + MA): 100 ± 11^c ng/100 mg wet tissue
Concentration DA in the striatum (MA-treated mice [3]; morphinan 24 (mg/kg) + MA): 864 ± 82^d ng/100 mg wet tissue
effect on CP 55940-induced stimulation in GTP γS binding (CB1 receptor): decreased
functional property at CB1 receptor (CB1 receptor): partial agonist of CB1 receptor, as well as a CB1 antagonist
inhibition of GTP γS binding (CB1 receptor; 100 nM): about 60%
effect on LPS-induced mortality (LPS-treated mice [4]): No animal died
effect on MPTP-induced decrease in locomotor activity (MPTP-treated mice [5]): significantly increased
effect on LPS-induced loss in nigral TH-IR (LPS-treated mice [6]): most effective in attenuating LPS-induced reduction in TH-IR
effect on MA-induced hyperthermia (MA-treated mice [7]): significantly attenenuated
effect on locomotor activity induced by low dose of cocaine (cocaine-treated mice; cocaine 5 mg/kg i.p. x 7 days, morphinan 15 or 30 mg/kg (DF 20 mg/kg) i.p.): consistently attenuated locomotor activity induced by a low dose of cocaine
effect on hyperactivity induced by high dose of cocaine (cocaine-treated mice; cocaine 20 mg/kg i.p. x 7 days, morphinan 15 or 30 mg/kg i.p. 30 min before): not uniform
CPP response of the compound itself (MA-treated mice [8]; AM 251 0.3, HM 20, ACEA 2 mg/kg i.p., no MA): Neither saline-, AM 251 (0.3 mg/kg, i.p.)-treated nor HM (20 mg/kg)-treated animals showed any CPP responses
effect on MA-induced CPP (MA-treated mice [8]; mouse, in vivo): significantly reduced the CPP produced by MA
affinity for σ1 receptors (σ1 receptors): high affinity ligands
anticonvulsant effect [9]: did not show any anticonvulsant effect
effect on LPS-induced decrease in locomotor activity (LPS-treated mice [10]): significantly prevented LPS-induced decrease in locomotor activity
effect on MPTP-induced reductions in striatal DA, DOPAC and HVA (MPTP-treated mice [11]; 24 mg/kg pretreatment): significantly protected
Concentration DOPAC in the striatum (MPTP-treated mice [11]; morphinan 12 (mg/kg) + MPTP): 68 ± 7 ng/100 mg wet tissue
Concentration HVA in the striatum (MPTP-treated mice [11]; morphinan 12 (mg/kg) + MPTP): 84 ± 8 ng/100 mg wet tissue
Concentration DA in the striatum (MPTP-treated mice [11]; morphinan 12 (mg/kg) + MPTP): 582 ± 74 ng/100 mg wet tissue
Concentration DOPAC in the striatum (MPTP-treated mice [11]; morphinan 24 (mg/kg) + MPTP): 98 ± 9^c ng/100 mg wet tissue
Concentration HVA in the striatum (MPTP-treated mice [11]; morphinan 24 (mg/kg) + MPTP): 104 ± 10^c ng/100 mg wet tissue
Concentration DA in the striatum (MPTP-treated mice [11]; morphinan 24 (mg/kg) + MPTP): 896 ± 79^c ng/100 mg wet tissue
Ki (cannabinoid CB1 site): 0.0115 µM
